From article PMC8277129, “Bioconcentration of Several Series of Cationic Surfactants in Rainbow Trout” (Environmental Science & Technology, 2021)
Read-outs that look alike come from different tables or passages of the source. Values belong to the compound of their own block, whether it stands above or below them.

Experiments:
[1] = design: method as in Perrin 1965, SRC, REACH, Perrin 1972, Hall 1957; conditions: ref Perrin 1965, SRC, REACH, Perrin 1972, Hall 1957, cited from earlier work
[2] = design: method as in REACH dossier; conditions: aqueous; ref REACH dossier; cited from earlier work
[3] = system: juvenile rainbow trout (Oncorhynchus mykiss); experiment: Bioconcentration (BCF) experiment based on OECD 305, aqueous exposure to surfactant mixtures; format: in vivo; conditions: for uptake rate constant (kU): 14 d exposure, 28 d depuration; for uptake rate constant (kU) / BCF (kU/kT) / measured total elimination rate constant (kT): whole fish
Protocol: (§1) Juvenile rainbow trout were purchased from EM lax in Västervik, Sweden, and held in the aquaria facility for one month prior to starting the experiment on August 28, 2018. Ethical approval for the experiments was obtained from Stockholm’s djurförsöksetiska nämnd (decision 9967–2017). The experiment was conducted in six 350 L fiberglass aquaria with a water renewal rate of 1.5 L min^–1 corresponding to a turnover time of […]. The water temperature and the air temperature in the aquaria room were 10 °C. The lighting was dim and programmed on a 12 h light/12 h dark cycle.
(§2) Three BCF experiments were conducted, one each for MIX1 and MIX2 at pH ∼7.6 (denoted MIX1 and MIX2 in the following), and one for MIX1 at pH ∼6.2 (MIX1pH). Each experiment consisted of a 14 d exposure phase and a 28 d depuration phase. There were also two control aquaria where unexposed fish were kept, one at pH 7.6 and one at pH 6.2. For the pH 6.2 aquaria, a 20% v:v formic acid solution was pumped into a premixing basin where it was mixed with the inflowing water before entering the aquarium. pH sensors monitored pH in the premixing basin and the aquarium. The pH for the MIX1 and MIX2 experiments was governed by the pH of the water supply. Water samples were collected at 8 time points during each experiment for the determination of pH and alkalinity. Water samples were collected daily during the exposure phase for determination of total organic carbon (TOC), which was measured with NDIR detection after acidification, purging and high-temperature catalytic combustion (Shimadzu TOC-L).
(§3) For the exposure phase, a methanol solution of the test chemical mixture was infused continuously at 4.0 μL min^–1 into the water inflow of the aquarium using a syringe pump. The target concentrations of the chemicals in water ranged from 2.5 to 100 μg L^–1 (Table 1). They were selected to be as low as possible to minimize the risk of toxic effects while still being high enough to enable collection of high-quality data, building on the results of the tissue distribution experiment.[32] The syringe pump was started in an aquarium containing no fish. After 16 h to allow the concentrations to stabilize, ∼80 rainbow trout were transferred to the aquarium. Over the following 14 d water samples were collected and fish were sacrificed according to the schedule in Table S5. The remaining fish were then transferred to a second aquarium that received water without chemical addition. Over the following 28 d further water samples were collected and fish were sacrificed (Table S5).
(§4) At each fish sampling, 4–6 fish were sacrificed. Fish were also sampled periodically from the control aquaria. Following stunning and severance of the spinal cord, the fish were placed in a polyethylene bag, weighed, and immediately frozen at −20 °C. The median fish weight at sacrifice was 10.94 g, with a 25th and 75th percentile of 8.43 and 13.58 g, respectively.
(§5) Three fish from each time point were prioritized for analysis based on proximity to the median fish weight. Each fish was semithawed, cut into 3–4 pieces, and homogenized with an Ultra-Turrax device. 150 mg of the homogenate was transferred to a preweighed 13 mL polypropylene tube, centrifuged to a pellet, and weighed. 50 μL of methanol was added and the prepared aliquot was frozen. For extraction internal standard solution (isotope labeled standards of Q10 (D21), Q14 (D29), and P16 (D33)), 3 mL of methanol and 3 steel balls (3.2 mm diameter) were added to the prepared aliquot. This mixture was mixed in a bullet blender for 1 min, and then placed in an ultrasound bath at 50 °C for 60 min. Following centrifugation, the supernatant was decanted and the extraction was repeated. The extracts were combined and a portion corresponding to 25–50 mg homogenate was cleaned up on a weak cationic exchange SPE column (WCX, 60 mg) as described elsewhere.[32] […]

[4] = ref Timmer and Droge (2017); cited from earlier work
[5] = Bioconcentration (BCF) experiment based on OECD 305, aqueous exposure to surfactant mixtures; format: in vivo, Oncorhynchus mykiss; conditions: pH 7.6 (MIX1, MIX2); whole fish; read-out: measured total elimination rate constant (kT) (converted)
Protocol: as §1, §2, §3, §4, §5

gills of rainbow trout = experiment: Mechanistic one-box mass balance model of gill uptake and elimination
Excerpt: To gain more mechanistic insight into the results, we formulated a simple one-box mass balance model of chemical bioconcentration in fish that considered diffusive uptake and elimination across the gills as well as biotransformation.[33] The flow of water across the gills and the flow of blood through the gills were modeled as perfusion limited resistances that constrain gill uptake and elimination. […] Consequently, these resistances are unknowns. Ion trapping effects caused by differences in pH between water at the gill surface and blood in the gills are considered, drawing on previous work on the uptake and elimination of ionizable organic chemicals across the gills of rainbow trout.[22],[23] Partitioning of the chemical from the dissolved phase into blood and into whole fish was calculated as the product of the membrane lipid–water distribution ratio (DMLW,T, including partitioning of both the neutral and the charged forms) and the fraction of membrane lipid in blood and whole fish. A detailed description of the model is provided in the SI (Text S3).
The contribution of the water perfusion and blood perfusion resistances were compared with the overall resistance for transport across the gills from water to blood (RW→B), which was calculated from the measured kU according to equation S4.3. […] For all of the other chemicals the blood resistance is insignificant compared to the overall resistance.
The rate constant for elimination across the gills, k2, can be defined as follows: [drawing 1] 1 where αB and αW are the neutral fractions of the chemical in the blood and in the water at the gill surface, respectively, and DFW is the fish-water distribution ratio of the chemical at the pH of blood (8.1) (see Text S3). Using the measured kU and the values of αW, αB, and DFW estimated for the model, k2 was calculated (Table 2).

[6] = Membrane-water partition coefficient of the charged form (DMLW,C); format: physicochemical; conditions: extrapolated from Timmer and Droge (2017)
Protocol: Table S3: Test chemical properties
Abbr. pKa$ Log DOC§ Log DMLW,C# SMILES
$ pKa values derived/reported for different alkylamine type analogues. The selected value is expected to be independent of chain length for all longer chain homologues, using a weighted value obtained from the different sources with more focus on experimental data:
Algorithm / simulated data Experimental reference data (25 °C)
Chem ACD/ COSMO- selected
(https://echa.europa.eu/registration-dossier/-

SMILES: CCCCN(C)C [N,N-dimethylbutylamine, reference compound]
- pKa, experimental reference data ([1]; 25 °C): 10.02

SMILES: CCCCNCCCC [N-butylbutan-1-amine]
- SURFACE TENSION [2]: 50.6 mN/m

SMILES: CCCCCCCCCCCCCCCCN(C)C [N,N-dimethylhexadecan-1-amine]
- SURFACE TENSION [2]: 30.5 mN/m

SMILES: CCCCCCCCN [octan-1-amine]
- SURFACE TENSION [2]: 44.2 mN/m

- initial rapid sorption as share of the cumulative uptake over 14 d ([3]; 14 d exposure phase): < 5%
- factor by which BCF is lower at pH 6.2 than at pH 7.6 ([3]; MIX1 vs MIX1pH): no influence of pH on BCF
- factor by which kU is lower at pH 6.2 than at pH 7.6 ([3]; MIX1 vs MIX1pH): the same
- uptake rate constant (kU) ([3]; pH 6.2 (MIX1pH)): 0.121 L kg^–1 h^–1
- BCF (kU/kT) ([3]; pH 6.2 (MIX1pH)): 55 L kg^–1
- measured total elimination rate constant (kT) ([3]; pH 6.2 (MIX1pH)): 0.0022 h^–1
- uptake rate constant (kU) ([3]; pH 7.6 (MIX1, MIX2), 10 °C): 0.104 L kg^–1 h^–1
- BCF (kU/kT) ([3]; pH 7.6 (MIX1, MIX2)): 51 L kg^–1
- measured total elimination rate constant (kT) ([3]; pH 7.6 (MIX1, MIX2)): 0.0020 h^–1
- factor by which BCF is lower for the QAC than for the tertiary amine with the same chain length ([3]; pH 7.6, Q10 vs T10, Q14 vs T14): 160
SMILES: CCCCCCCCCCCCCC[N+](C)(C)C [Q14, N,N,N-trimethyl-1-tetradecylammonium]
- Log DMLW,C (membrane-water partition coefficient of the charged form) [4]: 5.46

SMILES: CCCCCCCC/C=C/CCCCCCCCN(CCO)CCO [2-[(2-hydroxyethyl)[(9E)-octadec-9-en-1-yl]amino]ethan-1-ol]
- SURFACE TENSION [2]: 27 mN/m

SMILES: CCCCCCCCCC[N+](C)(C)CCCCCCCCCC.CCCCCCCCCC[N+](C)(C)CCCCCCCCCC.O=C([O-])CCCCC(=O)[O-] [1-Decanaminium,N-decyl-N,N-dimethyl-, hexanedioate(2:1)]
- SURFACE TENSION [2]: 32.3 mN/m

SMILES: CCCCCCCCCCCCCC[N+](C)(C)Cc1ccccc1.[Cl-] [benzyldimethyltetradecylazanium chloride]
- SURFACE TENSION [2]: 34.5 mN/m

- uptake rate constant (kU) ([3]; pH 7.6 (MIX1, MIX2), 10 °C): 4.8 L kg^–1 h^–1
- BCF (kU/kT) ([3]; pH 7.6 (MIX1, MIX2)): 1390 L kg^–1
- k el [5]: 9.44e-07 s⁻¹
- factor by which k2 was less than kT (gills of rainbow trout): ~10
- k2/kT (gills of rainbow trout; pH 7.6 (MIX1, MIX2)): 0.17
- predicted gill elimination rate constant eq 1 (k2) (gills of rainbow trout; pH 7.6 (MIX1, MIX2), from measured kU and modeled αW, αB, DFW): 0.0006 h^–1
- Log DMLW,C (membrane-water partition coefficient of the charged form) [6]: 6.16
SMILES: CCCCCCCCCCCCCN [P13, Tridecylamine]
- pKa used (selected value) ([1]; selected per amine type, weighted from simulated and experimental analogue data): C13NH2 (10.6)

SMILES: CCCCCCCCCCCCCCCCCCN [octadecan-1-amine]
- SURFACE TENSION [2]: 23.9 mN/m
